This is an account of results in patent US10717981B2, “Therapeutic compositions and methods of making and using the same” (Advanced ReGen Medical Technologies, LLC, priority 2018, dated 2020).

Data set [1] has as its system exosomes of heterochronic cultures. The data set can be described thus: Exosome production and RNA content in heterochronic culture with AGO2 inhibitor. Format: cell-based, human. The procedure: Exosomes were isolated from cell culture media by the Total Exosome Isolation Kit (Life Technologies), using a modified version of the manufacturer's protocol. Briefly, 7-day isochronic and heterochronic cultures were established with Exosome-depleted FBS Media Supplement (System Biosciences), and culture media collected on the 4th and 7th days. Cells were pelleted and supernatant transferred to another tube for further clarification at 2000 g for 30 min to remove residual cells and debris. The remaining supernatant was transferred to a fresh tube and 0.5 volumes of Total Exosome Isolation reagent added for overnight incubation at 4° C. The following day samples were centrifuged at 10,000 g for 1 hr at 4° C. to pellet the exosomes for subsequent nanoparticle tracking analysis (NTA) or long-term storage at −80° C. […] For NTA, exosomes were re-suspended in 0.5 mL of PBS and measured using the following parameters: Temperature=25.6+/−0.5° C.; Viscosity=(Water) 0.99+/−0.01 cP; Measurement time=30 sec; Syringe pump speed=30. […]
Total RNA from exosomes and cells was isolated using the miRCURY RNA Isolation Kit (Exiqon) with small and large RNAs fractionated with the RNeasy MinElute Cleanup Kit (Qiagen), both according to manufacturer's recommended specifications. […] Mapped reads from individual samples were then compared to determine fold change for each miRNA. […]

For a further data set, the system named is Aged TNCs. The data set can be described thus: Viability and cell count of aged TNCs cultured with CaMKP inhibitor (Trypan blue exclusion). It is filed as cell-based, human. As for the experimental part: Aged TNCs (20×10^6 cells per sample) were cultured with CaMKP inhibitor (FT-0640107 shown below) at the following concentrations 25 uM, 10 uM, 5 uM, 1 uM & 0 (vehicle). After 48 and 72 hours, cells were harvested, counted using Turk's solution and percent viability assessed using Trypan blue exclusion.
At 72 hours following treatment with the CaMPK inhibitor, FT-0640107, or vehicle, cells were harvested, counted and viability measured using Trypan blue exclusion.

Another data set has as its system aged cells. The data set can be described thus: Clonogenic assay (CFU-GM) of aged cells after miRNA mimic, siRNA or exosome treatment. To be noted: overexpression of candidate miRNAs in aged isochronic cultures, vs negative control RNA. It is filed as cell-based, human. The source says: Aged TNCs (10×10^6 cells per sample) were nucleofected with microRNA mimics (Qiagen), miRNA inhibitors (Qiagen), negative control siRNA (Qiagen), negative control miRNA inhibitor (Qiagen) or downstream target candidate siRNAs (Origene) using the Amaxa P3 Primary Cell 4D-Nucleofector X Kit (Lonza) on a 4D Nucleofector device (Lonza), according to manufacturer's specific protocol. Briefly, for nucleofection of CD34+ cells used in clonogenic assays, cells were nucleofected with 60 nmol total miRNA mimics, miRNA inhibitors or siRNA using the “human CD34+ cell” program. For nucleofection of T cells used in T cell activation and cell-mediated cytotoxicity assays, cells were nucleofected with 240 nmol total miRNA mimics, miRNA inhibitors or siRNA using the “human unstimulated T cell, high functionality” program.

In another data set the test system is restored cells. In words: Transwell co-culture of donor and receiver cell samples in presence or absence of manumycin. It is filed as cell-based, human. The source says:
Receiver cell samples (i.e., R1, R2, and R3) were individually paired with donor cell samples (i.e., D1, D2, and D3) and the pairs co-cultured in a transwell culture cell for four weeks. The morphology of the cells was studied at 2 weeks into the co-culture and at 4 weeks of co-culture. Gene expression arrays, protein arrays, and telomere length experiments compared freshly defrosted cells from the collection tubes (referred to as the baseline donor cell sample or baseline receiver cell sample) with cells at the 4-week study endpoint (referred to as restored cell samples).
Protein array analyses were carried out using conditioned media from the baseline donor cell sample or baseline receiver cell sample. The conditioned media was mixed with like cellular protein extracts and applied to the custom-designed arrays which consisted of antibody probes for 68 factors linked to cellular aging and senescence, collectively referred to as the senescence-associated secretory factors (SASF). Quantitative PCR gene array analyses were carried out by extracting RNA from the baseline samples or the co-cultured donor and receiver samples. The data presented represents the average metric determined for either the baseline donor cell sample, the baseline receiver cell sample, or the restored cell sample.
The nature of the soluble particles passing through the permeable membrane in the transwell co-culture experiments was investigated. Specifically, transwell co-culture experiments were carried out in the presence or absence of manumycin. Manumycin, -[(1S,5S,6R)-5-hydroxy-5-[(1E,3E,5E)-7-[(2-hydroxy-5-oxo-1-cyclopenten-1-yl)amino]-7-oxo-1,3,5-heptatrien-1-yl]-2-oxo-7-oxabicyclo[4.1.]hept-3-en-3-yl]-2E,4E,6R-trimethyl,2,4-decadienamide, is an antibiotic that acts a potent and selective farnesytransferase inhibitor. Mannumycin is also known to inhibit the release of exosomes. […] Further support for the role of exosome/microvesicles in mediating the disclosed cellular restoration process is shown in FIG. 36.

Description for aged MPB: TNC vials were quickly thawed at 37° C. and cells added dropwise 1:10 to pre-warmed RPMI-1640 equilibration solution containing 5% HSA, 30 U/mL DNase I (Sigma), 5 mM MgCl2 and 5 mM CaCl2), and incubated at 37° C. for 3-4 hrs. After equilibration, cells were pelleted, washed in RPMI-1640 with 2% BSA and resuspended in complete media containing 10% FBS. Cells were seeded at densities of 10 or 30×10^6 cells/well in 12- or 6-well plates, respectively, containing 0.4 μm transwell inserts (BD Falcon). Heterochronic cultures were established with young cells in the upper chamber and aged cells in the lower chamber. Cells were incubated at 37° C. for 7 days, with 15% of culture media replenished with fresh media on the 4th day. On the 7th day, cells were harvested by centrifugation and evaluated.
Non-adherent cells from LTC-IC assays, as well as cells from isochronic and heterochronic cultures, were studied for progenitors in short-term methylcellulose culture using a CFU-GM readout. Briefly, cultures were initiated by seeding 150 cells/mm^2 in clonogenic media containing 3 U/mL of rhGM-CSF (R&D Systems). After 10 days, cultures were scored by a single blinded observer, and colonies enumerated for CFU-GM.

As to `CC(NS(=O)(=O)c1ccc2[nH]c(=O)c(=O)[nH]c2c1)C(=O)O` (centres unmarked) [BCI-137], in the data set on aged MPB (inhibitor added to heterochronic cultures upon initial seeding), the “aged MPB clonogenicity” value was “significant decrease”. In addition, in data set [1], the “exosome production and total RNA content” value was “minimal effect”; the “small and miRNA payload of exosomes” value is “depleted”.

In the case of `Nc1c(S(=O)(=O)O)cc(S(=O)(=O)[O-])c2cccc(O)c12.[Na+]` [FT-0640107], the cell number entry in the data set on Aged TNCs (1 μM, 72 hours, vs vehicle control and high dose (25 μM), donor A04) was “increase in cell number”. The same compound had a viability at 1 µM in the data set with Aged TNCs (Homo sapiens, 1 μM, 72 hours, donor A04) of 96.3%. The same compound returned a viability at 25 µM with Aged TNCs (Homo sapiens, high dose of 25 μM, 72 hours, donor A04) of 93%. Besides, the “cell viability and cell number” value in the data set with Aged TNCs (donor A03, 48 or 72 hour timepoints) is “no significant difference”.

In the case of `O=C(/C=C/c1ccc(/C=C/C(=O)Nc2ccc(C3=NCCN3)cc2)cc1)Nc1ccc(C2=NCCN2)cc1` [GW4869], the “toxicity to the aged cultures” value in the data set with aged MPB is reported as “extremely toxic”. Also, the restorative phenotype result in the data set with aged MPB (blocking global exosome production (data not shown)) is “abrogated”.

For the compound “miR-1303: miRNA (miR-1303), UUUAGAGACGGGGUCUUGCUCU (listed as RNA, chemistry not fully specified; listed as Homo sapiens)”, in the data set with aged cells, the aged colony formation entry is recorded as “significant effect”.

`CCCC[C@@H](C)/C=C(C)/C=C(\C)C(=O)NC1=C[C@@](O)(/C=C/C=C/C=C/C(=O)NC2=C(O)CCC2=O)[C@@H]2O[C@@H]2C1=O` [manumycin, -[(1S,5S,6R)-5-hydroxy-5-[(1E,3E,5E)-7-[(2-hydroxy-5-oxo-1-cyclopenten-1-yl)amino]-7-oxo-1,3,5-heptatrien-1-yl]-2-oxo-7-oxabicyclo[4.1.]hept-3-en-3-yl]-2E,4E,6R-trimethyl,2,4-decadienamide]: in the data set on restored cells (5 μM, vs absence of manumycin), the “morphology of restored cells” value was “less robust morphology”. The “telomere length of restored cell sample” value with restored cells (R1-D1 pair, presence vs absence of manumycin) was “decreased”. For the same compound, the “gene expression of restored cell samples” value in the data set with restored cells (co-cultured in the presence of manumycin) was “did not display a change in expression levels similar to those observed in the absence of manumycin”. For the same compound, the “protein expression (senescence-related factors) of restored cell samples” value in the data set on restored cells (vs co-culture in the absence of manumycin) was “elevated levels of all proteins investigated”.
